According to ChEMBL document CHEMBL3431459, “Roche carnitine palmitoyltransferase modulator screening data (supplementary data associated with the publication CHEMBL2216752)”:
Values after ≈ are worked out from the molar mass of the structure shown.

Tests used:
[1] = SUPPLEMENTARY: Lyophilisation Solubility Assay (LYSA); format: physicochemical; conditions: read-out: Kinetic_solubility
[2] = target: T1, Carnitine O-palmitoyltransferase 1, liver isoform (Homo sapiens, UniProt P50416); assay: (§1) SUPPLEMENTARY: Inhibition of Carnitine palmitoyltransferase 1, liver isoform
T1 sequence (P50416 whole entry): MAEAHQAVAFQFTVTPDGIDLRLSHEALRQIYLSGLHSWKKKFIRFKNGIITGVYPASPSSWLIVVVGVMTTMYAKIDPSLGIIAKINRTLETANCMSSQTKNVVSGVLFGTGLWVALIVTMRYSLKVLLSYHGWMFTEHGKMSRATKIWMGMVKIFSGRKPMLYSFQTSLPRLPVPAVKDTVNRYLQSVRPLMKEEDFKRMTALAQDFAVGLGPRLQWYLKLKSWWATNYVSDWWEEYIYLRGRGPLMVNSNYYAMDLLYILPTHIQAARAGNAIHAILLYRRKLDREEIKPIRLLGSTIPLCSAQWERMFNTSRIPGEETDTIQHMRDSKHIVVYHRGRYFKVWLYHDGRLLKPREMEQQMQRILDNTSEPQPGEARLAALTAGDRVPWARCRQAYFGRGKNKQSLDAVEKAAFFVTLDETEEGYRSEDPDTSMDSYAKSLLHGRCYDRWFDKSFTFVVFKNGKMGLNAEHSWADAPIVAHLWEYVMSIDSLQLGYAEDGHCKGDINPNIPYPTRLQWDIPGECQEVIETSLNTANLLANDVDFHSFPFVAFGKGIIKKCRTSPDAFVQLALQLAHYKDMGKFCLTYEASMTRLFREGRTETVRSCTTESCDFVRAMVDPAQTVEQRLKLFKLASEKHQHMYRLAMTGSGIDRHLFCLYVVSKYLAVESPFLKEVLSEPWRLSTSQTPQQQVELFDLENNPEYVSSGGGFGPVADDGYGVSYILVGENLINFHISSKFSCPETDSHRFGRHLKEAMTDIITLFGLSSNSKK

[3] = target: T2, Carnitine O-palmitoyltransferase 1, liver isoform (Rattus norvegicus, UniProt P32198); assay: as §1
T2 sequence (P32198 whole entry): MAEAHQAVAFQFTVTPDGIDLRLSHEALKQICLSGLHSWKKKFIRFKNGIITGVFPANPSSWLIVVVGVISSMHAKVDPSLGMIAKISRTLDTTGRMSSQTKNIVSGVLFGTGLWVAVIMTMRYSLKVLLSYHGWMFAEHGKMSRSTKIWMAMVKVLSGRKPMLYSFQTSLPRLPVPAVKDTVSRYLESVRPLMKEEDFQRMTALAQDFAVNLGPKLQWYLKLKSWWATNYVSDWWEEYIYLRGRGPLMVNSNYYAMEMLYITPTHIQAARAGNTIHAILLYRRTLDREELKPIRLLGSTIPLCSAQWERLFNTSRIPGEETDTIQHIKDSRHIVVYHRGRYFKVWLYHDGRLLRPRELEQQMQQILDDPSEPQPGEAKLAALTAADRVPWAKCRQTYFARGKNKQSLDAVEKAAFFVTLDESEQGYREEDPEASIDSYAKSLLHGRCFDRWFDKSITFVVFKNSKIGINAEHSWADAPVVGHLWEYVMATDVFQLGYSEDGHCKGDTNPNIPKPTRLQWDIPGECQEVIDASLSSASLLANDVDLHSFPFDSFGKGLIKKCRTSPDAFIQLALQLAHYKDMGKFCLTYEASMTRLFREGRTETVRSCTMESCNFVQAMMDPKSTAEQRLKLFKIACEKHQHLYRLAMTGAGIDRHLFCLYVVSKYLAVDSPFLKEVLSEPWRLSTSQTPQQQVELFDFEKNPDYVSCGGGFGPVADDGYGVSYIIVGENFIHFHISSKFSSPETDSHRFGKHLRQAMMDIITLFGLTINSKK

[4] = target: T3, Carnitine O-palmitoyltransferase 2, mitochondrial (Homo sapiens, UniProt P23786); assay: (§2) SUPPLEMENTARY: Inhibition of Carnitine palmitoyltransferase 2
T3 sequence (P23786 whole entry): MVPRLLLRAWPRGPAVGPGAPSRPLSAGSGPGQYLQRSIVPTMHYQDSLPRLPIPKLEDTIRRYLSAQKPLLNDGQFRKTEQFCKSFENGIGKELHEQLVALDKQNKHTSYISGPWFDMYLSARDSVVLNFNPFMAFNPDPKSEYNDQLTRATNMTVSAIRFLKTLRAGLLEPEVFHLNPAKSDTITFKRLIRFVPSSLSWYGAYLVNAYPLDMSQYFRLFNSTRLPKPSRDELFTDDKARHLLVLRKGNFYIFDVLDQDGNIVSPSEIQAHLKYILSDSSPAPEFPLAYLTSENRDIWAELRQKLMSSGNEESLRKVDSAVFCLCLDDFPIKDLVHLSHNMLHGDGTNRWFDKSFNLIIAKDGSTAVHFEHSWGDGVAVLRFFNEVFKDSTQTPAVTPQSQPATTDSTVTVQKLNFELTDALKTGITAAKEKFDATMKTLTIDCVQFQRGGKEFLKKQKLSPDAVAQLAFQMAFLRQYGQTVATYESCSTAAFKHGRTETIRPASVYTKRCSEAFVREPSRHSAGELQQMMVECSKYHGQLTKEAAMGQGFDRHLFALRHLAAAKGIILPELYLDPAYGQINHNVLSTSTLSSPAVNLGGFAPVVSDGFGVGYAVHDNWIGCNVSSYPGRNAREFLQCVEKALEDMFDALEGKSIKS

[5] = target: T4, Carnitine O-palmitoyltransferase 2, mitochondrial (Rattus norvegicus, UniProt P18886); assay: as §2
T4 sequence (P18886 whole entry): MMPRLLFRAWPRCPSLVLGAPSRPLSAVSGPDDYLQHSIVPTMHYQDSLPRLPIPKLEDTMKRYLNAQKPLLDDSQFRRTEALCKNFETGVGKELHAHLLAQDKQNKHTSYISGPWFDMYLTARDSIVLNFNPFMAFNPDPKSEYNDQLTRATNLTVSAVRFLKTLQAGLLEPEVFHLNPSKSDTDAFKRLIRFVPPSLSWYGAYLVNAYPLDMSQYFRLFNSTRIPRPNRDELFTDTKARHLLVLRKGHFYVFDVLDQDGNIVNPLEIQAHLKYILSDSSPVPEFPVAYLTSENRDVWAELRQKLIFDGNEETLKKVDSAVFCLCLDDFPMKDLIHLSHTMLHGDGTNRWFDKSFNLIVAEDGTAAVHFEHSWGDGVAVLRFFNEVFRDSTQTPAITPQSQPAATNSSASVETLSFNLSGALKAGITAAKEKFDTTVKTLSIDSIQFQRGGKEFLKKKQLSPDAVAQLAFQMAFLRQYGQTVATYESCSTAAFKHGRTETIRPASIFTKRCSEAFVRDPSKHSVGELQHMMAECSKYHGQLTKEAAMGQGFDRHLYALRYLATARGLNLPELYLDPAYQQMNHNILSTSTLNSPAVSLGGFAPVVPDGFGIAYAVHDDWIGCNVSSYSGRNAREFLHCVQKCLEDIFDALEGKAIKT

[6] = SUPPLEMENTARY: PAMPA permeability assay; format: physicochemical; conditions: read-out: Permeability
[7] = SUPPLEMENTARY: Lipophilicity (log D) Determination by high-throughput shake-flask; format: physicochemical; conditions: octanol/water
[8] = target: T5, Carnitine O-palmitoyltransferase 1, muscle isoform (Homo sapiens, UniProt Q92523); assay: SUPPLEMENTARY: Inhibition of Carnitine palmitoyltransferase 1, muscle isoform; set-up: species or system Muscle tissue
T5 sequence (Q92523 whole entry): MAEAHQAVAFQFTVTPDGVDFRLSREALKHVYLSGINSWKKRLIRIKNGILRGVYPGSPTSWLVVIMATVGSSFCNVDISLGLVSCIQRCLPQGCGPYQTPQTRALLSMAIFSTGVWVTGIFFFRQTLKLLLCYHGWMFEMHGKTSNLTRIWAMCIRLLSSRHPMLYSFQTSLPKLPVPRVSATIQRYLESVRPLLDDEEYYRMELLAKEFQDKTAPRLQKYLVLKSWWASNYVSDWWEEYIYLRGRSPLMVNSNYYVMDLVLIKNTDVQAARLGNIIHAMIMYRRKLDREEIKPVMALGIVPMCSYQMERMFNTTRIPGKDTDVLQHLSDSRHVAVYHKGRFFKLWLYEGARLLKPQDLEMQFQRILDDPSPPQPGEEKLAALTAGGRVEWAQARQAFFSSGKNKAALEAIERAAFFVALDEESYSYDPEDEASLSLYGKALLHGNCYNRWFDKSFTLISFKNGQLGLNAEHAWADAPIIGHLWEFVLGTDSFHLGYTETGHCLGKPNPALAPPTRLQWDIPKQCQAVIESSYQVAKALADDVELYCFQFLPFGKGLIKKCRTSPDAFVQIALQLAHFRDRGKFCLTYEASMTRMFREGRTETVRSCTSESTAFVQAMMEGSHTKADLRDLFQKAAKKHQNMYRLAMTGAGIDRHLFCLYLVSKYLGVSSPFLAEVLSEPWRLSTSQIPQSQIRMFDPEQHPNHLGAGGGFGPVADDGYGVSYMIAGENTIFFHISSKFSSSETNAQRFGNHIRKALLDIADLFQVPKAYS

Compound	solubility kinetic [1] [µg/mL]	IC50 [2] [nM]	IC50 [3] [nM]	IC50 [4] [nM]	IC50 [5] [nM]	Papp [6] [×10⁻⁶ cm/s]	logD [7]	IC50 [8] [nM]
COCCN(c1cc(C(=O)Nc2nc(CC(=O)O)cs2)cc2c1OCO2)S(=O)(=O)c1cc(Cl)ccc1OC	238 (≈ 408 µM)	252	154	74400	> 100000	1.16	2.57	3560
O=C(COc1ccccc1)N1CCC(n2c(COc3ccccc3)nc3cc(F)ccc32)CC1	< 1	44400	> 10000	> 100000	> 100000	2.27	3.95	> 100000
COC(=O)[C@H]1CCCC[C@@H]1c1nc([C@H]2CCCCN2C(=O)COc2ccccc2)no1	11 (≈ 25.7 µM)	148	479	57300	85500	2.24	2.9	> 100000
CCOc1ccc(C(=O)Nc2ccc(CC(=O)O)cc2)cc1N(CCS(=O)O)S(=O)(=O)c1cc(Cl)ccc1OC	577 (≈ 944 µM)	105	408	> 100000	> 100000	0.04	< -1	634
O=C(COc1ccccc1)N1CCCC[C@@H]1c1noc(-c2ccc3snnc3c2)n1	1 (≈ 2.37 µM)	78.4	182	2740	42600	2.42	> 3	> 100000
O=C(COc1ccccc1)N1CCCC[C@@H]1c1noc(-c2cccc(N3CCCS3(=O)=O)c2)n1	< 1	67	162	> 100000	> 100000	1	2.89	> 100000
O=C(COc1ccccc1)N1CCNC[C@@H]1c1nc(-c2ccc3[nH]cnc3c2)no1	367 (≈ 907 µM)	132	9640	> 100000	> 100000	1.53	1.63	> 100000
O=C(COc1ccccc1)N1CCCC[C@@H]1c1nc(-c2ccc(=O)[nH]c2)no1	161 (≈ 423 µM)	325	1190	97900	> 100000	4.75	1.83	> 100000
Cc1cc(-c2noc([C@H]3CCCCN3C(=O)COc3ccccc3)n2)n(C)n1	30 (≈ 78.7 µM)	119	507	> 100000	> 100000	4.34	3.15	> 100000
CCC(=O)Nc1cccc(-c2n[nH]c([C@H]3CCCCN3C(=O)COc3ccccc3)n2)c1	56 (≈ 129 µM)	35.6	330	65700	76200	2.89	2.96	> 100000
COc1ccc(Cl)cc1S(=O)(=O)N1CC(C(=O)O)Cc2ccc(C(=O)Nc3ccccc3)cc21 (configuration not stated)	203 (≈ 405 µM)	20.8	14	> 100000	> 100000	1.83	0.31	5900
COc1ccc(Cl)cc1S(=O)(=O)N1COc2ccc(C(=O)Nc3ccc(CC(=O)O)cc3)cc21	46 (≈ 91.5 µM)	159	165	> 100000	> 100000	3.01	0.28	504
O=C([C@H]1CCCCN1C(=O)COc1ccccc1)N1Cc2cc(Cl)c(N3CCOCC3)cc2C1	36 (≈ 74.4 µM)	145	121	388	496	5.91	3.24	> 100000
NC(=O)c1ccc(-c2csc([C@H]3CCCCN3C(=O)COc3ccccc3)n2)cc1	43 (≈ 102 µM)	239	484	18900	75200	5.48	2.26	> 100000
